Measured values from publication PMC8878748, “Broad-Spectrum Antiviral Activity of the Amphibian Antimicrobial Peptide Temporin L and Its Analogs” (International Journal of Molecular Sciences, 2022).
Like-named read-outs stand apart in the source and are kept apart here. Where a SMILES comes first, the peptide text is derived from it. [ ]: non-standard residue; d: D form. The star is where a group is joined. X1 = CC(C)CCC[C@@H](C)[C@H]1CC[C@H]2[C@@H]3CC=C4C[C@@H](OC(=O)CCOCCOCCOCCOCCNC(=O)C*)CC[C@]4(C)[C@H]3CC[C@]12C; Undecanoyl = CCCCCCCCCCC(=O)*; Nle = CCCC[C@H](N)C(=O)O

What was measured:
MeV = conditions: for IC50 / IC90: 2 h
[1] = MTT cytotoxicity assay on Vero cells; type: cell-based; conditions: MTT, calculated after 2 h of peptide treatment
[2] = test system: influenza virus (subtype H1N1); conditions: influenza virus (subtype, 2 h)
[3] = test system: peripheral blood mononuclear cells (PBMCs); experiment: MTT cytotoxicity assay on PBMCs; type: cell-based, human; conditions: 2 h and 24 h
Procedure: Vero cells (ATCC CCL-81, Manassas, VA, USA) and Vero/hSLAM cells (ECACC 04091501, Porton Down, UK) and Madin Darby canine kidney (MDCK, CCL-34) were grown in Dulbecco’s Modified Eagle Medium (DMEM) with 4.5 g/L glucose (Microtech, Naples, Italy) supplemented with 100 IU/mL penicillin and 100 μg/mL streptomycin (Himedia, Naples, Italy) and 10% Fetal Bovine Serum (Microtech). PBMCs were isolated as follow. Buffy coats acquired from a healthy anonymous donor were used to isolate PBMCs on a Ficoll-Hypaque density gradient (Sigma-Aldrich) according to standard procedures. Then, PBMCs were grown (5 × 10^6/mL) in RPMI 1640 (Microtech) supplemented with 10% FBS, 60 IU/mL of interleukin-2 (IL-2, Sigma-Aldrich) and 2 µg/mL of phytohemagglutinin (PHA) (Sigma-Aldrich).
Vero cells were seeded in 96-well microtiter tissue culture plates (5 × 10^3 cells /well) and incubated for 24 h at 37 °C in 5% CO2. PBMCs were isolated and then cultured at a concentration of 1 × 10^5 cells/well.
The cytotoxicity for both cell types was evaluated by the MTT (Sigma-Aldrich) assay based on the reduction of the yellowish MTT to the insoluble and dark blue formazan by viable and metabolically active cells. Temporin-based peptides were tested at […] concentrations (0.1, 1, 6.25, 12.5, 25, 50 and 100 µM) after 2 and 24 h. At the end of incubation, 100 μL of an MTT solution (5 mg/mL) was added in each well and incubated for 3 h at 37 °C. The supernatant was discarded and 100 μL of DMSO 100% (Sigma Aldrich) was added (to dissolve the formazan salts) for 10 min with vigorous agitation at room temperature. Cytotoxicity was evaluated by spectrophotometric reading at 540 nm. The viability of Vero cells in each well was presented as a percentage of control cells. All experiments were performed in triplicate, and the means standard deviations are reported. Nonlinear regression analysis was performed using GraphPad Prism software (GraphPad Software, San Diego, CA, USA) to determine the CC50.

HPIV-3 = conditions: 2 h
[4] = cited from earlier work
HCoV-OC43 = conditions: 2 h
HCoV-229E = conditions: 2 h
HSV-1 = test system: HSV-1; design: method as in PMID 29483113; conditions: preincubation of HSV-1 purified virions with 20 µg/mL; cited from earlier work
human erythrocytes = conditions: for hemolytic activity: at their antiviral concentrations
Procedure: The hemolytic activity of the peptides was determined using fresh human erythrocytes from healthy donors as reported previously. Briefly, the blood was centrifuged, and the erythrocytes were washed three times with 0.9% NaCl. Peptides were added to the erythrocyte suspension (5% v/v), at a final concentration ranging from 0.1 to 100 μM in a final volume of 100 μL. The samples were incubated with agitation at 37 °C for 60 min. The release of hemoglobin was monitored by measuring the absorbance (Abs) of the supernatant at 540 nm. The control for zero hemolysis (blank) consisted of erythrocytes suspended in the presence of peptide solvent. Hypotonically lysed erythrocytes were used as a standard for 100% hemolysis. The percentage of hemolysis was calculated using the equation: % hemolysis = [(Abssample − Absblank)/(Abstotal lysis − Absblank)] × 100

Vero cells = experiment: MTT cytotoxicity assay on Vero cells; type: cell-based; conditions: 2 h of treatment, concentration above 50 μM
CV-B3 = experiment: Plaque reduction assay, CV-B3; type: cell-based, Enterovirus B (coxsackievirus B3, ATCC VR-688); conditions: four experimental settings
poliovirus Sb-1 = type: cell-based

Molecule	IC50 (MeV)	IC90 (MeV)	CC50 [1]	IC50 [2]	IC90 [2]	cytotoxicity on PBMCs [3]	other results
CCCC[C@H](NC(=O)[C@@H](CC(C)C)NC(=O)[C@H](Cc1ccccc1)NC(=O)[C@H](CCCCN)NC(=O)[C@H](CO)NC(=O)[C@H](Cc1ccccc1)NC(=O)[C@H](Cc1c[nH]c2ccccc12)NC(=O)[C@@H]1CCCN1C(=O)[C@@H](NC(=O)[C@H](Cc1ccccc1)NC(=O)[C@@H](N)CSCC(=O)NCCOCCOCCOCCOCCC(=O)O[C@H]1CC[C@@]2(C)C(=CC[C@H]3[C@@H]4CC[C@H]([C@H](C)CCCC(C)C)[C@@]4(C)CC[C@@H]32)C1)C(C)C)C(=O)N[C@@H](CCCNC(=N)N)C(=O)N[C@H](C(=O)N[C@@H](CC(C)C)C(N)=O)[C@@H](C)CC [TL6.3, H-[Cholesterol-PEG4]-Cys-Phe-Val-Pro-Trp-Phe-Ser-Lys-Phe-DLeu-Nle-Arg-Ile-Leu-NH2] (H-C(X1)FVPWFSKF[dL][Nle]RIL-NH2; N-terminus assumed)	22.3 µM	31.1 µM	> 100 µM	2.55 µM	5.89 µM	minor damage	
CCCC[C@H](NC(=O)[C@@H](CC(C)C)NC(=O)[C@H](Cc1ccccc1)NC(=O)[C@H](CCCCN)NC(=O)[C@H](CO)NC(=O)[C@H](Cc1ccccc1)NC(=O)[C@H](Cc1c[nH]c2ccccc12)NC(=O)[C@@H]1CCCN1C(=O)[C@@H](NC(=O)[C@@H](N)Cc1ccccc1)C(C)C)C(=O)N[C@@H](CCCNC(=N)N)C(=O)N[C@H](C(=O)N[C@@H](CC(C)C)C(N)=O)[C@@H](C)CC [TL6, H-Phe-Val-Pro-Trp-Phe-Ser-Lys-Phe-DLeu-Nle-Arg-Ile-Leu-NH2] (H-FVPWFSKF[dL][Nle]RIL-NH2)	34.6 µM	> 50 µM	64.5 µM	2.66 µM	9.34 µM	minor damage	IC50 (HPIV-3): 32.4 µM; IC90 (HPIV-3): > 50 µM; %Helix in DPC ([4]; Table 2): 51%; IC50 (HCoV-OC43): 0.97 µM; IC90 (HCoV-OC43): 10 µM; IC50 (HCoV-229E): 2.08 µM; IC90 (HCoV-229E): 13.1 µM
temporin B [TB]							reduction of virus titers (HSV-1): 5 log
H-FVQWFSKFLGRIL-NH2 [TL, H-Phe-Val-Gln-Trp-Phe-Ser-Lys-Phe-Leu-Gly-Arg-Ile-Leu-NH2, reference compound]			19.6 µM			minor damage	hemolytic activity (human erythrocytes): practically devoid of hemolytic activity; concentration showing residual hemolytic activity (human erythrocytes; red blood cells): ≥ 50 µM
CCCCCCCCCCC(=O)N[C@@H](Cc1ccccc1)C(=O)N[C@H](C(=O)N1CCC[C@H]1C(=O)N[C@@H](Cc1c[nH]c2ccccc12)C(=O)N[C@@H](Cc1ccccc1)C(=O)N[C@@H](CO)C(=O)N[C@@H](CCCCN)C(=O)N[C@@H](Cc1ccccc1)C(=O)N[C@H](CC(C)C)C(=O)N[C@@H](CCCC)C(=O)N[C@@H](CCCNC(=N)N)C(=O)N[C@H](C(=O)N[C@@H](CC(C)C)C(N)=O)[C@@H](C)CC)C(C)C [TL6.5, H-Undecanoic acid-Phe-Val-Pro-Trp-Phe-Ser-Lys-Phe-DLeu-Nle-Arg-Ile-Leu-NH2] (Undecanoyl-FVPWFSKF[dL][Nle]RIL-NH2)	10 µM	29.2 µM	> 100 µM	< 0.1 µM	< 0.1 µM	minor damage	
CCCC[C@H](NC(=O)[C@@H](CC(C)C)NC(=O)[C@H](Cc1ccccc1)NC(=O)[C@H](CCCCN)NC(=O)[C@H](CO)NC(=O)[C@H](Cc1ccccc1)NC(=O)[C@H](Cc1c[nH]c2ccccc12)NC(=O)[C@@H]1CCCN1C(=O)[C@@H](NC(=O)[C@@H](N)Cc1ccccc1)C(C)C)C(=O)N[C@@H](CCCNC(=N)N)C(=O)N[C@H](C(=O)N[C@@H](CC(C)C)C(=O)NCC(=O)NCC(=O)N[C@@H](CSCC(=O)NCCOCCOCCOCCOCCC(=O)O[C@H]1CC[C@@]2(C)C(=CC[C@H]3[C@@H]4CC[C@H]([C@H](C)CCCC(C)C)[C@@]4(C)CC[C@@H]32)C1)C(N)=O)[C@@H](C)CC [TL6.2, H-Phe-Val-Pro-Trp-Phe-Ser-Lys-Phe-DLeu-Nle-Arg-Ile-Leu-Gly-Gly-Cys-[PEG4-Cholesterol]-NH2] (H-FVPWFSKF[dL][Nle]RILGGC(X1)-NH2)	40.9 µM	> 50 µM	> 100 µM	21.1 µM	49.9 µM		toxicity (Vero cells): about 40%
CC[C@H](C)[C@H](NC(=O)[C@H](CCCNC(=N)N)NC(=O)CNC(=O)[C@@H](CC(C)C)NC(=O)[C@H](Cc1ccccc1)NC(=O)[C@H](CCCCN)NC(=O)[C@H](CO)NC(=O)[C@H](Cc1ccccc1)NC(=O)[C@H](Cc1c[nH]c2ccccc12)NC(=O)[C@@H]1CCCN1C(=O)[C@@H](NC(=O)[C@@H](N)Cc1ccccc1)C(C)C)C(=O)N[C@@H](CC(C)C)C(N)=O [TL1, H-Phe-Val-Pro-Trp-Phe-Ser-Lys-Phe-DLeu-Gly-Arg-Ile-Leu-NH2] (H-FVPWFSKF[dL]GRIL-NH2)	> 50 µM	> 50 µM	42.2 µM	6.74 µM	12.5 µM	minor damage	hemolytic activity (human erythrocytes): practically devoid of hemolytic activity; reduction of infectivity, MeV (MeV; cell pretreatment assay, peptide 25 μM): over 40%; effect on MeV in the virus pretreatment assay (MeV; virus pretreatment assay): not affected; infectivity of CV-B3 in the presence of peptide (CV-B3): not altered; %Helix in DPC ([4]; Table 1): 42%; %Helix in DPC ([4]; Table 2): 42%; infectivity of poliovirus Sb-1 in the presence of peptide (poliovirus Sb-1): not altered; IC50 (HCoV-229E): 7.66 µM; IC90 (HCoV-229E): 30.1 µM
